Reference: patent publication US10080747B2, “Nicotinic attenuation of CNS inflammation and autoimmunity” (priority 2008, dated 2018)
Read-outs that look alike come from different tables or passages of the source.

Assays:
Th cells = test system: Th cells
Experimental: Single cell suspensions (4×10^7 cells) were prepared and incubated at 37° C. for 3 days in round-bottom plates (2×10^6 cells/well) with or without antigens (MOG 10 μg/ml, PLP 10 µg/ml or Con A 2.5 μg/ml), and stimulated with PMA (20 ng/ml)/ionomycin (1 μg/ml)/brefeldin A (5 μg/ml) for another 5 h at 37° C. After harvesting, cells were stained for surface markers with fluorochrome-conjugated monoclonal antibodies including anti-CD3-PE/Cy5 (17A2), anti-CD4-APC/Cy7 (GK1.5), and anti-CD8α-PE/Cy7 (53-6.7) (BD Bioscience). Isotype-matched negative monoclonal antibodies were used as controls. For intracellular cytokine staining, after fixation and permeabilization with Cytofix/Cytoperm kit (BD Bioscience), anti-IFN-γ, anti-IL-4, anti-IL-10 and anti-IL-17 monoclonal antibody conjugated with Alexa 647 were used. All samples were analyzed on a FACSAria using Diva. To determine the percentage of cells producing cytokine, the value obtained with the isotype control was subtracted from that with specific antibody. For cytokine induction, supernatants were collected 3 days after in vitro boosting. IFN-γ, IL-10, IL-2 and TGF-β were measured by optEIA kits (PharMingen and eBioscience).

spinal cord of EAE mice = conditions: day 25 p.i., vs PBS
Experimental: Mice were anesthetized with pentobarbital and perfused by intracardiac puncture with 50 ml of cold PBS. Spinal cords were removed and fixed in 10% formalin/PBS. Paraffin-embedded longitudinal sections were prepared and stained for hematoxylin and eosin (H&E), luxol fast blue (LFB, myelin staining) and Biechowsky silver (axon staining). The percentages of spinal cord inflammation, demyelination and axonal damage per mouse were calculated by first determining the total white matter area for all spinal cord sections by manually tracing the regions. Next, the areas of spinal cord inflammation, demyelination and axonal damage were determined by manually tracing each section. Pathological changes in each spinal cord were scored as follows: 0 no changes; 1 focal area involvement; 2 <5% of total myelin area involved; 3 5-10% of total myelin area involved; 4 10-20% involved area; 5 >20% of total myelin area involved (Bai, X. F., et al., J Exp Med 200:447-458).

spleen mononuclear cells [1] = conditions: annexin V and PI double staining, at the current dose (13 mg/kg/d)
Experimental: Cell viability was assessed by trypan blue dye exclusion. […] Single cell suspensions were washed in PBS and resuspended in binding buffer containing annexin V-FITC and propidium iodide (PI) (both from BD Biosciences) for 20 min at room temperature. The samples were analyzed on a FACSAria using Diva.

CNS mononuclear cells = conditions: day 11 p.i.
Experimental: For CNS cell isolates, at day 11 after EAE induction (peak stage), mice were sacrificed and perfused with PBS through the left heart ventricle to eliminate contaminating blood cells in the CNS. The CNS mononuclear cells were then isolated from five to six mice using Percoll gradients and stained for cell surface markers. Antibodies were directly labeled and analyzed as done for splenocytes. The absolute number of a particular cell subset was calculated by counting the total number of mononuclear cells isolated from the CNS of individual mice and multiplying by the percentage of those cells acquired by FACSAria flow cytometry (Bai, X. F., et al., J Exp Med 200:447-458).

MOG-specific antibodies = test system: MOG-specific antibodies
Experimental: MOG-reactive antibodies were quantified by enzyme-linked immunoabsorbent assay (ELISA). Briefly, microtiter plates (Corning Glass Works, Corning, N.Y., USA) were coated with 100 μl/well of murine MOG35-55 (10 μg/ml) at 4° C. overnight. After blocking with 10% fetal bovine serum, serum samples (day 11, peak stage after immunization) were added and incubated at 4° C. overnight. Plates were then incubated for 2 h with biotinylated rabbit anti-mouse IgG, IgG1, IgG2a, IgA, IgG3 and IgG2b (Invitrogen, Carlsbad, Calif., USA), followed by alkaline phosphatase-conjugated ABC reagent (Dakopatts; R&D systems, Minneapolis, Minn., USA). The color was developed with p-nitrophenyl-phosphate. Results were expressed as optical density (OD) at […].

[2] = test system: MOG35-55-specific T cells; conditions: splenocytes day 11 p.i.
Description: Isotype-matched negative monoclonal antibodies were used as controls.

spleen mononuclear cells [3] = conditions: day 11 p.i.
acute EAE in B6 mice = conditions: for mean clinical score, remaining mild motor deficit after recovery: PBS 2.75±0.25; for mean maximal clinical score: scale 0 to 5, PBS 4.25±0.80
[4] = test system: adoptively transferred EAE in B6 mice; conditions: recipients of T cells from nicotine-treated donors
[5] = supernatants of splenocytes cultured with MOG35-55, vs controls
[6] = serum day 11 after immunization, vs control mice
[7] = nicotine pre-treated group (day −7)

## CN1CCCC1c1cccnc1 (centres unmarked) [nicotine]
Th cells; supernatants of splenocytes cultured with MOG35-55, p<0.01
  production of TGF-β1: significantly augmented
Th cells; supernatants of splenocytes cultured with MOG35-55, p<0.05
  production of IL-10: significantly augmented
Th cells; [5]
  IFN-γ production: significant decrease
  production of IL-2: decreased
Spinal cord of EAE mice
  axonal damage, Biechowsky silver: scarcely affected
  demyelination, LFB staining: myelin sheets were largely preserved
  spinal cord inflammation (cellular infiltration), H&E: few infiltrating cells
Spleen mononuclear cells [1]
  T cell apoptosis and death: did not induce T cell apoptosis
CNS mononuclear cells; vs PBS
  CD11b+ (macrophage/microglia) and CD11c+ (dendritic) cells in the CNS: lower percentages and absolute numbers
  expression of MHC class II, CD80 and CD86 on CNS CD11c and CD11b cells: reduced
CNS mononuclear cells; vs PBS-treated EAE mice
  numbers of T cells (CD3+, CD4+, CD8+) and B cells (CD3−CD19+) in the CNS: drastically reduced
MOG-specific antibodies; mouse, in vivo
  MOG-specific IgG2b production: profoundly impaired
MOG-specific antibodies; [6]
  MOG-specific IgA synthesis: markedly increased
  MOG-specific IgG1 synthesis: markedly increased
[2]; p<0.05 vs PBS
  T cell proliferation in response to MOG, 3H incorporation: far fewer T cells
[2]; vs PBS
  proliferation of CD3+, CD4+ and CD8+ T cells in response to MOG, CFSE assay: reduced proliferation
Spleen mononuclear cells [3]; nicotine from day 0, vs control EAE mice, p<0.05
  percentages and numbers of CD3+, CD4+ and CD8+ T cells and CD19+CD3− B cells among splenocytes: various degrees of reductions
Spleen mononuclear cells [3]; spleen, vs PBS
  expression of Foxp3: clearly augmented
Spleen mononuclear cells [3]; vs PBS
  NK cells, NKT cells and CD4+CD25+ regulatory T cells in spleen: did not differ significantly
  expression of MHC class II, CD80 and CD86 on peripheral CD11c+ and CD11b+ cells: reductions in the expression of MHC class II, CD80 and CD86 were notable
  numbers and percentages of CD11c+ and CD11b+ cells in spleen: not dramatically altered
Acute EAE in B6 mice; nicotine 13 mg/kg/d for 7 days by minipump, prior to or on the day of disease induction, PBS controls 7.6±0.53 days
  onset of EAE: ≥ 10 day p.i.
Acute EAE in B6 mice; [7]
  day by which the majority of animals recovered: ≤ 21 days
  mean clinical score, remaining mild motor deficit after recovery: 0.83±0.26
Acute EAE in B6 mice; nicotine-treated group (day 0)
  day by which the majority of animals recovered: ≤ 24 days
  mean clinical score, remaining mild motor deficit after recovery: 0.85±0.25
Acute EAE in B6 mice; pre-treatment starting day −7, 13 mg/kg/d x 7
  mean maximal clinical score: 3.17±0.78
Acute EAE in B6 mice; treatment starting day 0 after immunization, 13 mg/kg/d x 7
  mean maximal clinical score: 3.13±0.25
Acute EAE in B6 mice; treatment starting day 7 p.i. when EAE signs began, 13 mg/kg/d x 7
  severity of EAE compared with PBS: significantly milder EAE
Acute EAE in B6 mice; treatment starting day 7 p.i., 13 mg/kg/d x 7
  mean clinical score at the termination of experiments: 0.69±0.43
[4]
  mean clinical score: 1.0±0.15
[4]; control 5.0±0.25
  maximal clinical score: 2.5±0.82
